Key:
[1] = system: C2C12-PHF20/YY1-promoter-GFP cell line; test: HTS system: GFP (green luminescence) in PHF20-overexpressing myoblasts carrying YY1 promoter-GFP; assay type: cell-based, mouse; conditions: 10 μM compound, 24 h, after 250 ng/ml doxycycline 24 h; FDA-approved drug library of 1670 compounds
Excerpt: C2C12 myoblasts, which were stable cells in which PHF20 was overexpressed, were transformed with a plasmid coexisting with a YY1 promoter and GFP, which inhibited muscle differentiation, to prepare a stable cell line. The degree of GFP signal suppression was quantified and measured, and the degree of muscle differentiation was used as a quantitative measurement index (FIG. 1).
Specifically, the C2C12-PHF20/YY1-promoter-GFP cell line according to Example 1 was dispensed in a 96-well plate at 0.5×10^5, cultured for 24 hours, and cells in a 70% confluent state were treated with 250 ng/ml of doxycycline for 24 hours, and then treated with each compound at a final concentration of 10 μM.
For fluorescence intensity, C2C12-PHF20/YY1-promoter-GFP cells were dispensed at 4×10^5 in a 6-well culture plate and cultured for 24 hours. […] Thereafter, the degree of green luminescence was confirmed using GloMax microplate readers explorer (Promega, Madison, Wisconsin, USA).

aging mouse model [2] = test: Grip strength in aging mouse model; assay type: in vivo; conditions: oral 5, 50, 500 mg/kg daily for 28 days; vs control Group 1
Experimental: (§1) In order to confirm the balance ability and the grip strength recovery effect of the Rota Rod according to a dose of sulfasalazine, 50-week-old C57BL/6J male mice were divided into Group 1 of PBS, Group 2 of sulfasalazine 5 mg/kg, Group 3 of sulfasalazine 50 mg/kg, and Group 4 of sulfasalazine 500 mg/kg, and orally administered every day at 10 am for 28 days, and then the body weight was measured.
(§2) The Rota Rod was measured on days 0, 7, 14, 21, and 28 with the animal group constructed in Group 2 under the conditions shown in Table 2 below, and the results were shown in FIG. 11 ((*) p≤0.05 vs G1). In the same animal group as the Rota Rod, the grip strength was measured on the 2 paws and 4 paws of the mouse on days 0, 9, 16, 23, and 28, and the results were shown in FIGS. 12A and 12B.

aging mouse model [3] = test: Rota Rod balance ability in aging mouse model; assay type: in vivo; conditions: oral 5, 50, 500 mg/kg daily for 28 days; days 0, 7, 14, 21, 28
Experimental: as §1, §2

[4] = system: high-fat diet CTX-induced sarcopenia mouse model; test: Grip strength in high-fat diet CTX-induced sarcopenia mouse model; assay type: in vivo; conditions: oral 5, 50, 500 mg/kg daily for 14 days; days 5, 9, 13; vs group injected with CTX
Experimental: (§3) In order to construct a high-fat diet CTX-induced sarcopenia mouse model, for 23-week-old C57BL/6J male mice subjected to 60% HFD for 19 weeks, cardiotoxin (LATOXAN, Portes-lés-Valence, France) was dissolved at 1 mg/ml in PBS to make a high-concentration stock solution. For application to mice, the stock solution was diluted again in PBS (Hyclone Dulbecco's Phaosphate Buffer saline Cat. SH30028.02) to a final concentration of 0.03 mg/ml and used, and intramuscularly injected into both quadriceps muscles of the mouse using a 1 ml syringe (24 G) to construct the high-fat diet CTX-induced sarcopenia mouse model.
(§4) Five groups of Group 1 of orally administering PBS to a high-fat diet mouse without injecting CTX, Group 2 of orally administering PBS to a high-fat diet mouse injected with CTX, Group 3 of orally administering sulfasalazine 5 mg/kg to the high-fat diet mouse injected with CTX, Group 4 of orally administering sulfasalazine 50 mg/kg to the high-fat diet mouse injected with CTX, and Group 5 of orally administering sulfasalazine 500 mg/kg to the high-fat diet mouse injected with CTX were divided and orally administered at 10 am every day for 14 days, and the body weights were measured and the results were shown in FIG. 13. […]

aging mouse model [5] = test: Treadmill exercise capacity in aging mouse model; assay type: in vivo; conditions: oral 5, 50, 500 mpk daily for 28 days, vs PBS (G1)
Experimental: Treadmill adaptation was performed randomly for 3 days under conditions of grade 0, speed 15 (cm/sec), 10 minutes, electrical stimulation […] (defined as exhaustion when electrical stimulation occurred consecutive 4 times or more), and according to the treadmill result, mice with similar ability were distributed into each group and divided into 4 groups of 8 mice per group.
(§5) In order to confirm the treadmill exercise capacity according to a dose of sulfasalazine, the mice divided in 3-1 above were orally administered at 10:30 every day for 28 days with Group 1 of PBS (Hyclone Dulbecco's Phaosphate Buffer saline Cat. SH30028.02), Group 2 of sulfasalazine (Sigma, Cat. Nr S0883. CAS Number 599-79-1) 5 mpk, Group 3 of sulfasalazine 50 mpk, and Group 4 of sulfasalazine 500 mpk. In order to reduce an error on treadmill exercise ability, the mice were starved for 3 hours before measuring the treadmill, and then the treadmill was performed 4 times at 7-day intervals (0 days, 7 days, 14 days, and […]) according to Table 1 below.

[6] = system: high-fat diet CTX-induced sarcopenia mouse model; test: Rota Rod balance ability in high-fat diet CTX-induced sarcopenia mouse model; assay type: in vivo; conditions: oral 5, 50, 500 mg/kg daily for 14 days; days 4, 8, 12; vs group injected with CTX
Experimental: as §3, §4

[7] = Body weight in high-fat diet CTX-induced sarcopenia mouse model; assay type: in vivo; conditions: oral 5, 50, 500 mg/kg daily for 14 days
Experimental: as §3
Five groups of Group 1 of orally administering PBS to a high-fat diet mouse without injecting CTX, Group 2 of orally administering PBS to a high-fat diet mouse injected with CTX, Group 3 of orally administering sulfasalazine 5 mg/kg to the high-fat diet mouse injected with CTX, Group 4 of orally administering sulfasalazine 50 mg/kg to the high-fat diet mouse injected with CTX, and Group 5 of orally administering sulfasalazine 500 mg/kg to the high-fat diet mouse injected with CTX were divided and orally administered at 10 am every day for 14 days, and the body weights were measured and the results were shown in FIG. 13.

[8] = Body weight in aging mouse model; assay type: in vivo; conditions: oral 5, 50, 500 mpk daily for 28 days, vs PBS
Experimental: as §5
For a total of 28 days, the body weight of the mouse was measured, and any change in body weight was confirmed.

[9] = system: Velcro injured sarcopenia mouse model; test: Treadmill exercise capacity in Velcro injured sarcopenia mouse model; assay type: in vivo; conditions: oral 5, 50, 500 mg/kg; days 0, 3, 6, 10, 14; after day 6 of administration
Excerpt: (§6) The left leg of an 8-week-old C57BL/6J male mouse was anesthetized with isoflurane, the entire leg was wound from the ankle with a 5 cm sports tape, and then wound and fixed with a Velcro with a width of 10 mm, and the Velcro condition was checked every day for 14 days (FIG. 16). Meanwhile, in the present disclosure, Velcro injury means that muscle damage is caused by such Velcro by winding the muscle with the Velcro so as not to move.
(§7) In order to confirm the amount of treadmill exercise according to the dose of sulfasalazine, Group 1 (n=5) of orally administering PBS to 8-week-old C57BL/6J male mice without injury, Group 2 (n=5) of orally administering PBS to mice with Velcro injury, Group 3 (n=5) of orally administering sulfasalazine 5 mg/kg to mice with Velcro injury, Group 4 (n=5) of orally administering sulfasalazine 50 mg/kg to mice with Velcro injury, and Group 5 (n=5) of orally administering sulfasalazine 500 mg/kg to mice with Velcro injury were divided and orally administered at 10 am every day for 14 days, and the body weights were measured and the results were illustrated in FIG. 18. […]

[10] = Body weight in Velcro injured sarcopenia mouse model; assay type: in vivo; conditions: oral 5, 50, 500 mg/kg daily for 14 days
Excerpt: as §6, §7
For a total of 14 days, the body weights of the mice were measured, and any change in body weight was confirmed.

In the case of Nc1ccc(S(=O)(=O)Nc2ncccn2)cc1 [sulfadiazine], the “degree of green luminescence (GFP inhibition) in screening” value (“degree … (GFP inhibition) in screening” for short) [1] is reported as “effect of reducing green luminescence”.
In the case of COc1cc(NS(=O)(=O)c2ccc(N)cc2)nc(OC)n1 [sulfadimethoxine], the “degree … (GFP inhibition) in screening” value [1] is reported as “effect of reducing green luminescence”.
With COc1ncnc(NS(=O)(=O)c2ccc(N)cc2)c1OC [sulfadoxin] the “degree … (GFP inhibition) in screening” value [1] was “effect of reducing green luminescence”.
With N=C(N)NS(=O)(=O)c1ccc(N)cc1 [sulfaguanidine] the “degree … (GFP inhibition) in screening” value [1] was “effect of reducing green luminescence”.
With COc1cnc(NS(=O)(=O)c2ccc(N)cc2)nc1 [sulfameter] the “degree … (GFP inhibition) in screening” value [1] was “effect of reducing green luminescence”.
For Cc1nnc(NS(=O)(=O)c2ccc(N)cc2)s1 [sulfamethizole], the “degree … (GFP inhibition) in screening” value [1] was “effect of reducing green luminescence”.
For Nc1ccc(S(N)(=O)=O)cc1 [sulfanilamide], the “degree … (GFP inhibition) in screening” value [1] was “effect of reducing green luminescence”.
In the case of Nc1ccc(S(=O)(=O)Nc2ccnn2-c2ccccc2)cc1 [sulfaphenazole], the “degree … (GFP inhibition) in screening” value [1] is reported as “effect of reducing green luminescence”.
In the case of Nc1ccc(S(=O)(=O)Nc2ccccn2)cc1 [sulfapyridine], the “degree … (GFP inhibition) in screening” value [1] is reported as “effect of reducing green luminescence”.
For O=C(O)c1cc(/N=N/c2ccc(S(=O)(=O)Nc3ccccn3)cc2)ccc1O [sulfasalazine], the “grip strength, 2 paws” value (aging mouse model [2]) was “grip strength was improved with the increase in sulfasalazine dose”, the “grip strength, 4 paws” value (aging mouse model [2]) was “grip strength was improved with the increase in sulfasalazine dose” and the “balance ability on the Rota Rod” value (aging mouse model [3]) was “recovery of balance ability of the mouse on the Rota Rod was improved”. For the same compound, the “grip strength, 2 paws” value [4] was “grip strength was improved with the increase in sulfasalazine dose”, the “grip strength, 4 paws” value [4] was “grip strength was improved with the increase in sulfasalazine dose” and the “treadmill exercise capacity (latency to fall)” value (aging mouse model [5]) was “the higher the sulfasalazine dose, the higher the treadmill exercise capacity”. For the same compound, the “balance ability on the Rota Rod” value [6] was “recovery of balance ability of the mouse on the Rota Rod was improved”, the “degree … (GFP inhibition) in screening” value [1] was “effect of reducing green luminescence” and the body weight [7] was “no difference in body weight was observed”. For the same compound, the body weight [8] was “no difference in body weight was observed”, the treadmill running distance [9] was “treadmill running distances were increased as the administration period was increased” and the treadmill running time [9] was “treadmill running time was increased as the administration period was increased”. The body weight [10] was “no difference in body weight was observed”.
For Nc1ccc(S(=O)(=O)Nc2nccs2)cc1 [sulfathiazole], the “degree … (GFP inhibition) in screening” value [1] was “effect of reducing green luminescence”.

From patent US12685732B2, “Composition for improving, preventing or treating muscular disorders including sulfonamide-based compounds” (The Industry & Academic Cooperation in Chungnam National …, priority 2022, dated 2026)
